Assay results reported in patent US20070264679A1, “Method for analyzing the activity of lipoxygenase using a water-soluble substrate” (Chungnam National University Industry Collaboration …, priority 2006, published 2007).

How the values were obtained:
[1] = biological target: T1, Rabbit reticulocyte 15-lipoxygenase (reticulocyte LOX) (Oryctolagus cuniculus, UniProt P12530); assay: Oxygenation of arachidonoyl lysophospholipids by reticulocyte LOX; type: biochemical; conditions: reticulocyte LOX 2 units/ml, 50 mM phosphate buffer pH 7.4
T1 construct: purchased Biomol Inc. (Plymouth Meeting, Pa., USA)
T1 sequence (P12530 1-663): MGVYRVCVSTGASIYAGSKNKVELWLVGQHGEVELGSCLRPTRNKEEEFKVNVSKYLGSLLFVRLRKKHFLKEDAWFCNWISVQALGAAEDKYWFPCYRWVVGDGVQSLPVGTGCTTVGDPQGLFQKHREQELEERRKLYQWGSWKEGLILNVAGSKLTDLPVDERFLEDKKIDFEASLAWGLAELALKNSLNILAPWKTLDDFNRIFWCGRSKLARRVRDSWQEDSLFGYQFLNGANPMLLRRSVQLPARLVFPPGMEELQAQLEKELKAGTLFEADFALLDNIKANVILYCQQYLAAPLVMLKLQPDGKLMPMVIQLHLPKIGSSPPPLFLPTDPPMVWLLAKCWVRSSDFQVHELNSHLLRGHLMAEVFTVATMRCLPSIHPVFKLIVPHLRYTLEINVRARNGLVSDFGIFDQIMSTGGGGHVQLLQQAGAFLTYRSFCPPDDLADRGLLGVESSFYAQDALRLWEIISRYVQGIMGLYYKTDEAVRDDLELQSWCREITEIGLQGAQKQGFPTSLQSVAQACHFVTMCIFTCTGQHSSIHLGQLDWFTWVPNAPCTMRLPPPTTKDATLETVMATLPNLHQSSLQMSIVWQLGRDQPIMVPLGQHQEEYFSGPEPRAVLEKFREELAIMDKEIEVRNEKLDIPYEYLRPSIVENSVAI
Experimental: Activities of various LOXs were monitored by measuring the increase in absorbance at 234 nm due to the formation of hydroperoxide (ε234=25,000 M^−1 cm^−1) at 25° C. as described before (Smith et al, J. Biol. Chem. 247 (1972) 1038-1047). One unit is defined as the amount of LOXs that can produce one nanomole of conjugated diene per min. The reaction mixture (500 μl) included reticulocyte LOX (2 units/ml) in 50 mM phosphate buffer (pH 7.4), porcine leukocyte LOX (1 unit/ml) in 100 mM phosphate buffer (pH 7.5) containing 5 mM EDTA and 0.03% Tween 20, or soybean LOX-1 (2.5 units/ml) in 50 mM borax buffer (pH 9.0) at 25° C. The reactions were started by including each substrate (100 μM) into the above reaction mixture.
Reticulocyte LOX (2 units/ml), leukocyte LOX (1 units/ml) or soybean LOX-1 (2.5 units/ml) was incubated with each arachidonoyl derivative substrate of various concentrations as described above. The values of kinetic parameters were obtained according to Lineweaver Burke plot analyses as described before (Barroso et al, J. Chromatogr. B. Analyt. Technol. Biomed. Life. Sci. 814 (2005) 21-28).
It is noteworthy that the efficacy of arachidonoyl-lysoPC as a substrate for leukocyte LOX was approximately 10-fold greater than that of arachidonic acid. In an additional study, the oxygenation of arachidonoyl-lysoPC or arachidonoyl-lysoPA by reticulocyte LOX was examined. […]

leukocyte LOX = biological target: T2, leukocyte LOX (Sus scrofa, UniProt P16469); assay: Position specificity of leukocyte LOX in oxygenation of arachidonoyl-lysoPC (SP-HPLC of HETE); type: biochemical, porcine; conditions: predominant product 12-HETE
T2 construct: purchased Cayman Chemical Co. (Ann Arbor, Mich., USA)
T2 sequence (P16469 1-663): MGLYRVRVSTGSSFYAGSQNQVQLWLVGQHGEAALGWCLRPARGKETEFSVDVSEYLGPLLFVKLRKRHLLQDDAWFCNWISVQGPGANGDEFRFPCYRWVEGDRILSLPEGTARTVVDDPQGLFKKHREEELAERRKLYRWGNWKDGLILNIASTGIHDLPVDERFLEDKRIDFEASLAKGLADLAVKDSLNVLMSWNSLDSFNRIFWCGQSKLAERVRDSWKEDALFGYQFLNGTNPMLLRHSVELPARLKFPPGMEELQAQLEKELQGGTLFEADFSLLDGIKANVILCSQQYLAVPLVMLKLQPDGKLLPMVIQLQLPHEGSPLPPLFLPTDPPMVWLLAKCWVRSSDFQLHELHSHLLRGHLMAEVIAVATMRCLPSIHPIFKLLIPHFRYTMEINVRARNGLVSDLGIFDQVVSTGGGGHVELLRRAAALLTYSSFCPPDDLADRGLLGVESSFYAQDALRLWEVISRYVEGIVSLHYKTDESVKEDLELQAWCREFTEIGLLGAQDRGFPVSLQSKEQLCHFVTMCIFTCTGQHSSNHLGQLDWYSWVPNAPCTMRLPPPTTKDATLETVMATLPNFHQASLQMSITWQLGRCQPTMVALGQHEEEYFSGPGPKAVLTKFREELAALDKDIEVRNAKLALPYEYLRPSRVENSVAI
Experimental: After 30 min incubation, the reaction was stopped by the addition of sodium borohydride to reduce hydroperoxy compounds to their corresponding alcohols, which were subjected to alkaline hydrolysis. After 30 min incubation at 60° C. under N2, the mixture was subjected to lipid extraction as described previously (Leon et al, J. Agric. Food. Chem. 52 (2004) 1207-1211). Finally, the lipid extract was analyzed by SP-HPLC system equipped with silica gel column (4 μm, 150×3.9 mm, Waters, USA), which was eluted (1 ml/min) with n-hexane/isopropyl alcohol/acetic acid (100:1:0.05). The identification of hydrolysis products was carried out in comparison with each standard compound, 15-hydroxyeicosatetraenoic acid (HETE) or 12-HETE.
To establish the position of oxygenation of arachidonoyl chain in arachidonoyl-lysoPC, hydroperoxyeicosatetraenoyl-lysoPC was subjected to NaBH4 reduction, followed by saponification in alkaline medium, to afford hydroxyeicosatetraenoic acid, which was further purified by SP-HPLC.

CCCCC/C=C\C/C=C\C/C=C\C/C=C\CCCC(=O)OCC(O)COP(=O)([O-])OCC[N+](C)(C)C (centres unmarked) [Arachidonoyl-lysoPC, 1-Arachidonoyl lysophosphatidylcholine]
Vm/Km value in reticulocyte LOX-catalyzed oxygenation compared with arachidonic acid [1]: somewhat greater than that of arachidonic acid | minor product behaving like 15-HETE in leukocyte LOX-catalyzed oxygenation (leukocyte LOX): ≤ 5%
